pIC50: −log10 of the molar value.
The compounds below were run against T1, Platelet-activating factor acetylhydrolase (Homo sapiens, UniProt Q13093) (assay: Inhibitory activity against recombinant human Lp-PLA2 (Lp-PLA2).).
T1 sequence (Q13093 whole entry): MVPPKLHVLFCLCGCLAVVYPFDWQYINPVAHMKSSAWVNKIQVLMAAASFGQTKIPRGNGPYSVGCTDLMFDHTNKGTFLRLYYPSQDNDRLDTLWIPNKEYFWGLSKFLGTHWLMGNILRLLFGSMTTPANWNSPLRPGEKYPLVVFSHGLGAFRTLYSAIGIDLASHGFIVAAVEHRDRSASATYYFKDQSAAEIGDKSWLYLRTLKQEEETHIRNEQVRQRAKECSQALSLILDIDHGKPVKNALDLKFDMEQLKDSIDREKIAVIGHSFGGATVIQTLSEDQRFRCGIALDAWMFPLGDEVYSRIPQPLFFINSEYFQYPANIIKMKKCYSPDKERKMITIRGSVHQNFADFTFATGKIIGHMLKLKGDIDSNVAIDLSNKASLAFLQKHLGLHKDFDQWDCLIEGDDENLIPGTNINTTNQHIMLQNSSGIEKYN
For `COc1ncc(Cc2cn(CC(=O)N(C)Cc3ccc(-c4ccc(C(F)(F)F)cc4)cc3)c(SCc3ccc(F)cc3)nc2=O)cn1`, the pIC50 was 9.70.
`Cn1cc(Cc2cn(CCCC(=O)NCc3ccc(-c4ccc(F)cc4)cc3)c(SCc3ccc(F)cc3)nc2=O)cn1` showed a pIC50 of 8.40.
`Cn1cc(Cc2cn(CCCC(=O)NCc3ccc(-c4ccccc4)cc3)c(SCc3ccc(F)cc3)nc2=O)cn1` was tested, and the pIC50 was 8.30.
`CN(Cc1ccc(-c2ccc(Cl)cc2)cc1)C(=O)Cn1cc(Cc2cnc(N(C)C)nc2)c(=O)nc1SCc1ccc(F)cc1` showed a pIC50 of 9.10.
`COc1ncc(Cc2cn(CCCC(=O)NCc3ccc(-c4ccccc4)cc3)c(SCc3ccc(F)cc3)nc2=O)cn1` showed a pIC50 of 8.40.
With `COc1ncc(Cc2cn(CC(=O)N(C)Cc3ccc(-c4ccc(F)cc4)cc3)c(SCc3ccc(F)cc3)nc2=O)cn1` the pIC50 was 9.22.
`COc1ncc(Cc2cn(CCCC(=O)N(C)Cc3ccc(-c4ccc(Cl)cc4)cc3)c(SCc3ccc(F)cc3)nc2=O)cn1` showed a pIC50 of 8.30.
Work on `O=C(Cn1cc(Cc2cncnc2)c(=O)nc1SCc1ccc(F)cc1)NCc1ccccc1-c1ccccc1` yielded a pIC50 of 6.71.
Compound `O=C(Cn1cc(Cc2cncnc2)c(=O)nc1SCc1ccc(F)cc1)NCc1ccc(-c2ccccc2)cc1` has a pIC50 of 8.40.
`CN(Cc1ccc(-c2ccccc2)cc1)C(=O)Cn1cc(Cc2cncnc2)c(=O)nc1SCc1ccc(F)cc1` was tested, and the pIC50 was 8.10.
In the case of `COc1ncc(Cc2cn(CCCC(=O)NCc3ccc(-c4ccc(Cl)cc4)cc3)c(SCc3ccc(F)cc3)nc2=O)cn1`, the pIC50 was 8.40.
For `CCn1cc(Cc2cn(CC(=O)N(C)Cc3ccc(-c4ccc(Cl)cc4)cc3)c(SCc3ccc(F)cc3)nc2=O)cnc1=O`, the pIC50 was 9.30.
In the case of `O=C(Cn1cc(Cc2cncnc2)c(=O)nc1SCc1ccc(F)cc1)NCc1cccc(-c2ccccc2)c1`, the pIC50 was 7.62.
`CN(Cc1ccc(-c2ccc(Cl)cc2)cc1)C(=O)Cn1cc(Cc2cnc(C(F)(F)F)nc2)c(=O)nc1SCc1ccc(F)cc1` showed a pIC50 of 8.30.
`CN(Cc1ccc(-c2ccc(Cl)cc2)cc1)C(=O)Cn1cc(Cc2cnc(N3CCOCC3)nc2)c(=O)nc1SCc1ccc(F)cc1` gave a pIC50 of 9.00.
For `COc1ncc(Cc2cn(CC(=O)NCc3ccc(-c4ccc(Cl)cc4)cc3)c(SCc3ccc(F)cc3)nc2=O)cn1`, the pIC50 was 9.30.
`CN(Cc1ccc(-c2ccc(F)cc2)cc1)C(=O)CCCn1cc(Cc2cnn(C)c2)c(=O)nc1SCc1ccc(F)cc1` showed a pIC50 of 8.10.

Source: ChEMBL document CHEMBL1135094, “Potent, orally active inhibitors of lipoprotein-associated phospholipase A(2): 1-(biphenylmethylamidoalkyl)-pyrimidones” (Bioorg Med Chem Lett, 2002)
